The results in this text go back to article PMC13295013 (Nature chemical biology, 2026).

Each structure is given as a SMILES string.

Common to all, as to type: cell-based
Assay [1] relates to pMek levels in CIAR-293 cells. Description: pMek levels in CIAR-293 cells treated with A115 or DMSO. The following applies: A115 1 h.
For assay [2], the target named is high-affinity Raf:Mek interactions (Homo sapiens, UniProt Q02750). Briefly: Co-immunoprecipitation of Raf with Mek from Mia PaCa-2 cells treated with partial inhibitory doses of Mek inhibitors. Conditions: 4 h.
For assay [3], the system named is pErk levels in Mia PaCa-2 cells. Briefly: Raf inhibitor and Mek inhibitor cotreatments, pErk, Mia PaCa-2 cells.
Assay [4] concerns pMek levels in mutant KRas-expressing lines. Briefly: pMek levels in mutant KRas-expressing cell lines treated with Mek inhibitors. The following applies: multiple mutant KRas-expressing lines, 4 h.
Assay [5] relates to pErk levels in HCT-116 (G13D KRas/WT Raf) cells. Briefly: LXH-254 titration, pErk western blot, HCT-116 cells.
In a further assay the target is ARaf:CRaf heterodimers (Homo sapiens, UniProt P04049+P10398). Description: Co-immunoprecipitation of ARaf with CRaf in MiaPaCa-2 cells treated with LXH-254. The following applies: Mia PaCa-2 cells.
For assay [6], the system named is pErk levels in Mia Paca-2 cells (single encorafenib-occupied Raf dimers). Description: Encorafenib and LXH-254 cotreatment, pErk, Mia Paca-2 cells. Conditions: encorafenib 1 h, then LXH-254 3 h.
Assay [7] concerns pErk levels in MDA-MB-231 cells. Description: LXH-254 titration, pErk western blot, MDA-MB-231 cells. Conditions: 4 h LXH-254 treatment. On the technique in general: In western blotting, separated proteins are transferred to a membrane and probed.
Assay [8] concerns pErk levels in MDA-MB-453 cells. Briefly: LXH-254 titration, pErk western blot, MDA-MB-453 cells. The following applies: 4 h LXH-254 treatment.
Assay [9] concerns pErk levels in Mia PaCa-2 cells. Briefly: LXH-254 titration, pErk western blot, Mia PaCa-2 cells. Conditions: at 10–50 μM LXH-254.
Assay [10] deals with pErk levels in HCT-116 cells (single encorafenib-occupied Raf dimers). Description: Encorafenib and LXH-254 cotreatment, pErk, HCT-116 cells. Conditions: encorafenib 1 h, then LXH-254 3 h.
Assay [11] deals with pErk levels in MDA-MB-453 cells (single encorafenib-occupied Raf dimers). Briefly: Encorafenib and LXH-254 cotreatment, pErk, MDA-MB-453 cells. The following applies: encorafenib 1 h, then LXH-254 3 h.
Assay [12] concerns pErk levels in CIAR-293 cells. Description: Inhibitor titrations in CIAR-293 cells (pErk). Conditions: A115 or DMSO 1 h, then LXH-254 3 h.
Assay [13] has as its system pErk levels in MDA-MB-453 cells. Briefly: Bliss synergy analysis of cobimetinib/LXH-254 pErk titration data, MDA-MB-453 cells. Conditions: combination with LXH-254, MDA-MB-453 cells, p < 0.05.
The mark [14] stands for this setting: Mia Paca-2 cells, partial (~85%) inhibitory dose 1 h, then LXH-254 3 h.

Chain of high-affinity Raf:Mek interactions (Q02750 whole entry): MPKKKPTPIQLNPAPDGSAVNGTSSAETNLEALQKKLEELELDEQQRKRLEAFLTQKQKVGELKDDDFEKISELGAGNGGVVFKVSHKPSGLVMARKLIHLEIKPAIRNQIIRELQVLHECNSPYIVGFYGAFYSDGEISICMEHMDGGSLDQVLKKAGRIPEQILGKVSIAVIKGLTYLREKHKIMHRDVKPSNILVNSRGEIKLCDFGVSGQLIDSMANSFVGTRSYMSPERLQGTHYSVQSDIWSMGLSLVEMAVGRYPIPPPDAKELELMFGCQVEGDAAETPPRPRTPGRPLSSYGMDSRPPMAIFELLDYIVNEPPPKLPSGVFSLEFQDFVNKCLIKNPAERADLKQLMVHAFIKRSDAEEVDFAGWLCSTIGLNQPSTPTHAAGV
Chain of ARaf:CRaf heterodimers (P10398 whole entry): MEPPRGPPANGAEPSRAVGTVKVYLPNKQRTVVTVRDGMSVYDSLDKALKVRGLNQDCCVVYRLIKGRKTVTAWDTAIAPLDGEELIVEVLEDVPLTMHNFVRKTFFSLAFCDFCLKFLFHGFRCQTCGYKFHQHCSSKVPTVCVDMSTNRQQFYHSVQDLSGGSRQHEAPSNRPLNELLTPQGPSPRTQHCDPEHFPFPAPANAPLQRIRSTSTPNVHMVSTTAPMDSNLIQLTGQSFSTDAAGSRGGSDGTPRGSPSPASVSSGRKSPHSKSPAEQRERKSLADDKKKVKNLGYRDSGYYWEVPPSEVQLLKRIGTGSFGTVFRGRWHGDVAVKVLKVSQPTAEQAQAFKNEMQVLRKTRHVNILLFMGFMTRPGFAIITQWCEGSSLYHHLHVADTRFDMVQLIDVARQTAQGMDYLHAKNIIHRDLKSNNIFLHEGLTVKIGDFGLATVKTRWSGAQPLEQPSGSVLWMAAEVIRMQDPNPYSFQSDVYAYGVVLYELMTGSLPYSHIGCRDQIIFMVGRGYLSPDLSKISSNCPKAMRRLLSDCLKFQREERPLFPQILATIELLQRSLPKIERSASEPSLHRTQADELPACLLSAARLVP
Chain of ARaf:CRaf heterodimers (P04049 whole entry): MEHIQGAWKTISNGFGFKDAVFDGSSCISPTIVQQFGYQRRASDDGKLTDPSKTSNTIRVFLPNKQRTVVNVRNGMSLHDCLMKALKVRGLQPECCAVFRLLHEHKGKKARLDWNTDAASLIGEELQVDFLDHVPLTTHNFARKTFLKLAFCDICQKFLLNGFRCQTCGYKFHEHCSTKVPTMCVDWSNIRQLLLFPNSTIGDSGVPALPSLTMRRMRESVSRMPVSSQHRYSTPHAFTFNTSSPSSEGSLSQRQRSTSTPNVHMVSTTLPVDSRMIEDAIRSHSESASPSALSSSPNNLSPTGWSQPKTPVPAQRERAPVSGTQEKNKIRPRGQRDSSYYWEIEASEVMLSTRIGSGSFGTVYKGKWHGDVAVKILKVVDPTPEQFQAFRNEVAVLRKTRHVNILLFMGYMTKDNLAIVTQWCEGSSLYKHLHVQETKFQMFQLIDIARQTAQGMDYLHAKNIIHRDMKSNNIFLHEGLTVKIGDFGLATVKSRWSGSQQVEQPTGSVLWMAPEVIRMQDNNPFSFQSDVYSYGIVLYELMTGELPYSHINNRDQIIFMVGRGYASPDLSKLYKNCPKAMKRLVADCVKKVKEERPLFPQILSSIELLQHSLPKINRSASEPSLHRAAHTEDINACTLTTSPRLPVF

As for `CN(C)CC#Cc1ccc(OCCCc2sc(N3CCc4cccc(C(=O)Nc5nc6ccccc6s5)c4C3)nc2C(=O)O)c(F)c1` [A115], the “pMek levels upon A115 treatment versus DMSO” value in assay [1] is reported as “four-fold higher”.
Take `CNS(=O)(=O)Nc1nccc(Cc2c(C)c3ccc(Oc4ncccn4)cc3oc2=O)c1F` [CH5126766]: in [2], the “effect on high-affinity Raf:Mek interactions” value is “promoted”. For the same molecule, the “effect of Mek inhibitor pretreatment on LXH-254 pErk IC50 / inhibitory activity” value in [3] (setting [14]) is reported as “potently antagonizes”. Also, in assay [4], the “effect on pMek (Mek activation) relative to DMSO” value is listed as “either reduced or minimally affected”.
Consider `Cc1ccc(NC(=O)c2ccnc(C(F)(F)F)c2)cc1-c1cc(OCCO)nc(N2CCOCC2)c1` [LXH-254], for which the “pErk IC50” value in assay [5] (4 h LXH-254 treatment) is “double-digit nanomolar”; in assay [7], “double-digit nanomolar”; in assay [8], “micromolar”. In addition, the “treatment time at which maximal and stable inhibition of downstream signaling (pErk) was achieved” value in assay [5] (time course, 32 nM LXH-254, n=1) was 4 h. In addition, at ARaf:CRaf heterodimers, the “LXH-254 concentrations at which ARaf was recruited into heterodimers with CRaf” value was 10 to 50 µM. Moreover, the figures for the “decrease in LXH-254 pErk IC50 after encorafenib pretreatment and washout” value in [6], in [10] and in assay [11] were ~ 30 fold, 2-3 fold and ~ 20 fold, respectively. Besides, the “decrease of pErk levels” value in assay [9] is recorded as > 80%. Also, the IC50 (as a rule, the concentration that gives 50% inhibition) in [3] (Homo sapiens, MIA PaCa-2, read-out: LXH-254 pErk IC50, DMSO pretreatment) came to 590 nM. Moreover, in assay [12], the “change of pErk IC50 in A115-treated versus DMSO-treated CIAR-293 cells” value was “four-fold lower”.
`O=C(c1ccc(F)c(F)c1Nc1ccc(I)cc1F)N1CC(O)([C@@H]2CCCCN2)C1` [cobimetinib]: the “average Bliss score” value in assay [13] worked out at 8.72. Besides, in assay [2], the “effect on high-affinity Raf:Mek interactions” value is given as “disrupted”. Also, the “increase in LXH-254's potency (pErk IC50) after Mek inhibitor pretreatment” value in assay [3] (setting [14]) is on record as ~ 4 fold. In [4], the “effect on pMek (Mek activation) relative to DMSO” value is “greatly enhanced”.
